Where two headings read alike, the source gives them in different places.
Key:
[1] = test system: P. berghei; experiment: Dose ranging test for P. berghei infection in mice; format: in vivo, Plasmodium berghei
Method: Control mice were treated orally with chloroquine for 4 days under q.d. dosing regimen at 10 mpk/day. From day 2 to 30 post infection, parasitemia was measured daily by flow cytometry and microscopy, as described above. Survival of animals to day 30 post infection, with no detectable parasites in the peripheral blood, were considered to be cured (i.e., 100% efficacy).

[2] = test system: P. knowlesi; experiment: P. knowlesi drug sensitivity assay; format: cell-based, Plasmodium knowlesi; details: 48 h, blood stage parasites, read-out: EC50, inhibition of P. knowlesi growth
Method: The drug sensitivity assays were performed in 96-well plates using 50 μL culture at 0.5% parasitemia and 2% hematocrit. The compounds were serially diluted in 1% DMSO. Parasite growth assays were performed for 48 h. Parasite cultures were then fixed with 50 μL 0.25% glutaraldehyde for 30 min at room temperature. The culture supernatants were removed and the cells were stained with 5% SYBR Green in the dark for 30 min. Parasitemia was defined by the proportion of Alexa 488-A positive cells in 50,000 recorded events using LSR II analyzer (BD). The percentage of parasite growth was normalized with the DMSO vehicle control group and the highest-dosage group, and plotted as a dose-response curve in Prism 7.

## CCC1(CC)CC(=O)N([C@@H]2CCOc3ccc(C(=O)N[C@H]4CC(C)(C)Oc5ccccc54)cc32)C(=N)N1 [WM382]
[1]; WM382 1 mpk oral b.i.d. 4 days
  day post-infection from which parasites were detected: 2 days
[1]; WM382 3 mpk oral b.i.d. 4 days
  day post-infection after which parasites were detectable: > 12 days
[1]; WM382 3 mpk oral b.i.d. 4 days, n = 4
  outcome to day 30 post-infection: one mouse remaining parasite-free on day 30 pi
[1]; WM382 10 mpk oral b.i.d. 4 days
  outcome to day 30 post-infection: remained parasite-free
[1]; WM382 30 mpk oral b.i.d. 4 days
  outcome to day 30 post-infection: remained parasite-free
[1]; WM382 oral q.d. 60, 30 or 10 mpk/day, 4 days
  outcome to day 30 post-infection: cured all mice
[2]; Plasmodium knowlesi
  EC50: 0.2 nM
[2]
  EC50: 0.18 ± 0.06 nM

Source: article PMC7146544, “Dual Plasmepsin-Targeting Antimalarial Agents Disrupt Multiple Stages of the Malaria Parasite Life Cycle” (Cell Host & Microbe, 2020)
